Test [1] in a line: DRUGMATRIX: Sodium/nucleoside co-transporter radioligand binding (ligand: nitrobenzylthioinosine). The class given is cell membranes, Cavia porcellus, Dunkin-Hartley, Cerebral cortex, Membrane. The note with it: Not Active = under 50% inhibition at 10 µM.
Test [2] in a line: DRUGMATRIX: Glutamate, AMPA radioligand binding (ligand: [3H] AMPA). The class given is cell membranes, Rattus norvegicus, Wistar, Cerebral cortex, Membrane. The note with it: Not Active = under 50% inhibition at 10 µM.
Test [3] concerns the target T1, 3-hydroxy-3-methylglutaryl-coenzyme A reductase (Homo sapiens, UniProt P04035).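 Also: enzyme inhibition assay of HMG-CoA reductase using radiolabeled [14C]HMG-CoA as substrate; in other assays of this panel Not Active means under 50% inhibition at 10 µM.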
T1 sequence (P04035 whole entry): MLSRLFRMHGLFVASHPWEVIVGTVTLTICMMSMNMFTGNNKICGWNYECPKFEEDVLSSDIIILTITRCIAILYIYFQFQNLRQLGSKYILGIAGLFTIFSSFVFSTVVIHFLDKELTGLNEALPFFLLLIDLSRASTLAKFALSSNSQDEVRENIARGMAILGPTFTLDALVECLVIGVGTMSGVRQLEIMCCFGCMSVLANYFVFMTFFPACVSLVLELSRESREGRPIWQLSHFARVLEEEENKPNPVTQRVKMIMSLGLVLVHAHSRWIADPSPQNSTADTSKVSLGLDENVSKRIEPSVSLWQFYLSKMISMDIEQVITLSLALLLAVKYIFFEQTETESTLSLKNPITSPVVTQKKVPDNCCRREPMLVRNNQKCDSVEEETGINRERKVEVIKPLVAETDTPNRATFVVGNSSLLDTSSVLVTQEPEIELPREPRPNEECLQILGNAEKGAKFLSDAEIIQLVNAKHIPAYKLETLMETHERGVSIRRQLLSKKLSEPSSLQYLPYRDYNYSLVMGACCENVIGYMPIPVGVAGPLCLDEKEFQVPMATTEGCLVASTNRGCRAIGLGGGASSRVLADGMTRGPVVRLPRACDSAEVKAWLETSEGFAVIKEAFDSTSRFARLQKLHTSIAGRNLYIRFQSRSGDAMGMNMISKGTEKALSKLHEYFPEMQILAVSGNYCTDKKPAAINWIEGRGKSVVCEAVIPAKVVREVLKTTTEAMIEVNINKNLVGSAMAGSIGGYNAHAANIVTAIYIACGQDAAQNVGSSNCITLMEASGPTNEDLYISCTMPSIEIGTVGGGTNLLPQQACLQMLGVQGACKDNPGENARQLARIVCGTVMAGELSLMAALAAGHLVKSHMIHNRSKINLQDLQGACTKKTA
Details: species or system Escherichia coli.

Test [4] concerns the target T2, Nitric oxide synthase, inducible (Mus musculus, UniProt P29477).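 Also: inhibition of iNOS enzyme activity measured with L-arginine as substrate; in other assays of this panel Not Active means under 50% inhibition at 10 µM.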
T2 sequence (P29477 whole entry): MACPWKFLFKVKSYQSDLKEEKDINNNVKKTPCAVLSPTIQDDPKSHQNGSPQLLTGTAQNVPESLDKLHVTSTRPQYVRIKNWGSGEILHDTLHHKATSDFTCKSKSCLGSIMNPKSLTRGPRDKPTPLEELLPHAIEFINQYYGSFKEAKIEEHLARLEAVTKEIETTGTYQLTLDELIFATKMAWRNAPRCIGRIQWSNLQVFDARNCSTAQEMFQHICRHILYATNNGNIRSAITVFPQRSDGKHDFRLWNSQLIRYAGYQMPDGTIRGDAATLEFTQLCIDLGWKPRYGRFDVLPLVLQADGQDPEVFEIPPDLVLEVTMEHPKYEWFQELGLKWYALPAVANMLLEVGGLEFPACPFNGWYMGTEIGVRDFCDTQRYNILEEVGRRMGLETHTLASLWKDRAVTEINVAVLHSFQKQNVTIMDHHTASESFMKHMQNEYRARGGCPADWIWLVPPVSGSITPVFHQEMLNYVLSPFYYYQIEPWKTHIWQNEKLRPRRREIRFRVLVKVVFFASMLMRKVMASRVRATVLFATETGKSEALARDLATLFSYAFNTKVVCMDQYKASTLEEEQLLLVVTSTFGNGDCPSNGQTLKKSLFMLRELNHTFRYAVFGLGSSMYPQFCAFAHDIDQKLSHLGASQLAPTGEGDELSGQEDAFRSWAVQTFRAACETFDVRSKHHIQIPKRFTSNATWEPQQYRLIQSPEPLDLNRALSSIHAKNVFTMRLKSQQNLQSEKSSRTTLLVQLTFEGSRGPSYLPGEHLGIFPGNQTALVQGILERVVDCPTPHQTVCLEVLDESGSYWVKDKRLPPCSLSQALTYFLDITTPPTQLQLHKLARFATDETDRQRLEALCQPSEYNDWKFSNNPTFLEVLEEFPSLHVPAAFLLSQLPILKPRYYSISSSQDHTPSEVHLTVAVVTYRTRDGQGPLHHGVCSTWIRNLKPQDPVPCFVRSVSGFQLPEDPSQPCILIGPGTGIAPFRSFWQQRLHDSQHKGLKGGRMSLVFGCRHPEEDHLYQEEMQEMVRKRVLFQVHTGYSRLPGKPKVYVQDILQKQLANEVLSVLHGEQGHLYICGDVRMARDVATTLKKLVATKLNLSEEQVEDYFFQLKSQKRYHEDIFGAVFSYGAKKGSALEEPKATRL
Details: species or system Escherichia coli.

A short description of test [5]: DRUGMATRIX: Phosphodiesterase PDE4 enzyme inhibition (substrate: [3H]cAMP + cAMP). The following applies: u-937; Not Active = under 50% inhibition at 10 µM.
For test [6], the target named is Mitogen-activated protein kinase 3 (Homo sapiens, UniProt P27361). Nature of the test: DRUGMATRIX: Protein Serine/Threonine Kinase, ERK1 enzyme inhibition (substrate: Myelin Basic Protein). On the set-up: species or system Escherichia coli. The note with it: Not Active = under 50% inhibition at 10 µM.
The target in test [7] is T3, 5-hydroxytryptamine receptor 1A (Rattus norvegicus, UniProt P19327). Also: in other assays of this panel Not Active means under 50% inhibition at 10 µM.
T3 sequence (P19327 whole entry): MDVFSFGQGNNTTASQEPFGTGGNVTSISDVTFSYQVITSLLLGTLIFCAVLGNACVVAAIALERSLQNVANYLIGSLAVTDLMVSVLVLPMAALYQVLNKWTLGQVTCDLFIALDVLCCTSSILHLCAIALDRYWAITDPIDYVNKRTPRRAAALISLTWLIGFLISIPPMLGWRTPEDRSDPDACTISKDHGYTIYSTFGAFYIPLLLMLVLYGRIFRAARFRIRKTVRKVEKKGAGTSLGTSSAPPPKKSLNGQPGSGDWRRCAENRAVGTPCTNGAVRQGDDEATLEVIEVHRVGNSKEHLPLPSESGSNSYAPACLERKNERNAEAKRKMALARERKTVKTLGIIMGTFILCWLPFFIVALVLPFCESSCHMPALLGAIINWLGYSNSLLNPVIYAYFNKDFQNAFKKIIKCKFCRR
The class given is cell membranes, CHO-K1, Membrane.

Mitogen-activated protein kinase 3, sequence (P27361 whole entry): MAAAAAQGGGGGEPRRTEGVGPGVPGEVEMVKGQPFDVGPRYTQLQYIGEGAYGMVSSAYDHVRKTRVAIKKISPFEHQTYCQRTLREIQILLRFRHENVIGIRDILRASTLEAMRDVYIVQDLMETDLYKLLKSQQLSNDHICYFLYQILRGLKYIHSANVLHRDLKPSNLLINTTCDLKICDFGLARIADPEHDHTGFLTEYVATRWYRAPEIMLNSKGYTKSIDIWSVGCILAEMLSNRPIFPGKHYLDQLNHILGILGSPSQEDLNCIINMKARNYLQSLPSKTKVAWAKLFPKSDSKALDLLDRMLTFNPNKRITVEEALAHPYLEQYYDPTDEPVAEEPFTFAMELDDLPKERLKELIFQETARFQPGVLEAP

As usually defined, the IC50 is the concentration that inhibits the measured activity by half. By Ki is commonly meant the dissociation constant of the complex between target and ligand, obtained from inhibition or displacement. Take `CNC1(c2ccccc2Cl)CCCCC1=O` (stereo not given) [KETAMINE]: the IC50 entry in test [1], in test [2], in test [3], in test [4], in test [5] and in test [6] was “Not Active” in each case. For the same compound, the IC50 entry in test [7] (cho-k1) is reported as “Not Active”. Moreover, the Ki result in test [1], in test [2] and in test [5] was “Not Active” throughout.
For the compound `O=C(O)c1cn(-c2ccc(F)cc2)c2cc(N3CCNCC3)c(F)cc2c1=O` [SARAFLOXACIN], the IC50 entry in test [1], in test [2], in test [3], in test [4], in test [5] and in test [6] was “Not Active” each time. In test [7] (cho-k1), the IC50 entry was “Not Active”. Moreover, the Ki entry in test [1], in test [2] and in test [5] was “Not Active” in each case.
On to SODIUM ORTHOVANAD, for which the IC50 entry in test [1], in test [2], in test [3], in test [4], in test [5] and in test [6] was “Not Active” in each case. In addition, the IC50 result in test [7] (cho-k1) is “Not Active”. The Ki result in test [1], in test [2], in test [3], in test [4], in test [5] and in test [6] was “Not Active” throughout. Moreover, the inhibition constant Ki entry in test [7] (cho-k1) is recorded as “Not Active”.
As to `Cn1c(=O)c2nc[nH]c2n(C)c1=O.O` [THEOPHYLLINE], the IC50 result in test [1], in test [2], in test [3], in test [4], in test [5] and in test [6] was “Not Active” throughout. In addition, the IC50 entry in test [7] (cho-k1) is recorded as “Not Active”. Further, the Ki result in test [1], in test [2] and in test [5] was “Not Active” throughout.
Take `CO[C@@H]1[C@@H](OC)[C@H](C)[C@@](O)(CC(=O)O)O[C@H]1[C@H](C)[C@H]1O[C@@]2(CC[C@@](C)([C@H]3CC[C@@](C)([C@@H]4O[C@@H]([C@H]5O[C@](C)(O)[C@H](C)C[C@@H]5C)C[C@@H]4O[C@@H]4C[C@H](OC)[C@@H](OC)[C@H](C)O4)O3)O2)C[C@H](O)[C@H]1C` [MADURAMICIN ACID]: the IC50 entry in test [1], in test [2], in test [3], in test [4], in test [5] and in test [6] was “Not Active” throughout. Besides, the IC50 in test [7] (read-out: IC50) was 7.83 nM. In addition, the Ki entry was “Not Active” in test [1], “Not Active” in test [2], “Not Active” in test [5] and 4.47 nM in test [7] (read-out: Ki).
As to `CCN(CC)CC(=O)Nc1c(C)cccc1C` [LIDOCAINE], the IC50 entry in test [1], in test [2], in test [3], in test [4], in test [5] and in test [6] was “Not Active” each time. Moreover, the IC50 entry in test [7] (cho-k1) is listed as “Not Active”. For the same compound, the inhibition constant Ki result in test [1], in test [2] and in test [5] was “Not Active” throughout.
Take `CN(C/C=C/C#CC(C)(C)C)Cc1cccc2ccccc12` [TERBINAFINE]: the IC50 result in test [1], in test [2], in test [3], in test [4], in test [5] and in test [6] was “Not Active” in each case. Also, the IC50 entry in test [7] (cho-k1) was “Not Active”. Besides, the Ki entry in test [1], in test [2] and in test [5] was “Not Active” throughout.
As to `CCCCNc1ccc(C(=O)OCCN(C)C)cc1` [TETRACAINE], the 50% inhibitory concentration (IC50) result in test [1], in test [2], in test [3], in test [4], in test [5] and in test [6] was “Not Active” in each case. Moreover, the IC50 result in test [7] (cho-k1) was “Not Active”. The Ki entry in test [1], in test [2] and in test [5] was “Not Active” in each case.
For the compound `CC[C@@H](C(=O)[C@@H](C)[C@@H](O)[C@H](C)[C@@H]1O[C@@H]([C@@H](CC)C(=O)O)CC[C@@H]1C)[C@H]1O[C@]2(C=C[C@@H](O)[C@]3(CC[C@@](C)([C@H]4CC[C@](O)(CC)[C@H](C)O4)O3)O2)[C@H](C)C[C@@H]1C` [SALINOMYCIN], the IC50 entry in test [1], in test [2], in test [3], in test [4], in test [5] and in test [6] was “Not Active” each time. The IC50 result in test [7] (cho-k1) is listed as “Not Active”. Also, the Ki result in test [1], in test [2] and in test [5] was “Not Active” in each case.
Turning to `Cc1c(C)c2c(c(C)c1O)CCC(C)(CN1CCN(c3cc(N4CCCC4)nc(N4CCCC4)n3)CC1)O2` (stereo not given), the IC50 entry in test [1] was “Not Active”; in test [2], “Not Active”; in test [3], “Not Active”; in test [4], “Not Active”; in test [5], “Not Active”; in test [6] (read-out: IC50), 4960 nM. Moreover, in test [7] (cho-k1), the IC50 result is reported as “Not Active”. Further, the Ki result in test [1], in test [2] and in test [5] was “Not Active” in each case.
Turning to `Clc1ccccc1CN1CCc2sccc2C1` [TICLOPIDINE], the IC50 entry in test [1], in test [2], in test [3], in test [4], in test [5] and in test [6] was “Not Active” in each case. Also, in test [7] (cho-k1), the IC50 result is recorded as “Not Active”. Also, the Ki result in test [1], in test [2] and in test [5] was “Not Active” in each case.

The values are drawn from ChEMBL document CHEMBL1909046, “DrugMatrix in vitro pharmacology data”.
